# Measured values: PubChem BioAssay AID1963449 (Molecular Pharmacology Branch, DTP, NCI, 2024)
# Test system: 596521-263-R-J1-PDC complex spheroid growth
# Assay: Anticancer human tumor 596521-263-R-J1-PDC patient-derived soft tissue sarcoma cell line growth inhibition [Asc]
# Conditions: for IC50: curve of first compound; for viability, T/C: stronger effect = lower value
# Method in brief: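 Tumor cells were grown as complex spheroids with human endothelial cells (HUVEC) and human mesenchymal stem cells as stroma. Agents were tested alone and in combination, in half-log steps down from the clinical Cmax, or from 10 microM where Cmax was unknown.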
# [1] = second compound 0.0316 µM, first compound 0.0316 µM
# [2] = second compound 0.0316 µM, first compound 0.1 µM
# [3] = second compound 0.0316 µM, first compound 0.316 µM
# [4] = second compound 0.0316 µM, first compound 1 µM
# [5] = second compound 0.1 µM, first compound 0.0316 µM
# [6] = second compound 0.1 µM, first compound 0.1 µM
# [7] = second compound 0.1 µM, first compound 0.316 µM
# [8] = second compound 0.1 µM, first compound 1 µM
# [9] = second compound 0.316 µM, first compound 0.0316 µM
# [10] = second compound 0.316 µM, first compound 0.1 µM
# [11] = second compound 0.316 µM, first compound 0.316 µM
# [12] = second compound 0.316 µM, first compound 1 µM
# [13] = second compound 1 µM, first compound 0.0316 µM
# [14] = second compound 1 µM, first compound 0.1 µM
# [15] = second compound 1 µM, first compound 0.316 µM
# [16] = second compound 1 µM, first compound 1 µM
# [17] = second compound 3.16 µM, first compound 0.0316 µM
# [18] = second compound 3.16 µM, first compound 0.1 µM
# [19] = second compound 3.16 µM, first compound 0.316 µM
# [20] = second compound 3.16 µM, first compound 1 µM
# [21] = second compound 10 µM, first compound 0.0316 µM
# [22] = second compound 10 µM, first compound 0.1 µM
# [23] = second compound 10 µM, first compound 0.316 µM
# [24] = second compound 10 µM, first compound 1 µM
# 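Note: spheroids exposed to compounds for 7 days.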
compound,measurement,setting,value
CNC(C)C(=O)NC1CN(S(=O)(=O)c2cccc(S(=O)(=O)N3CCC4CCC(C(=O)NC(c5ccccc5)c5ccccc5)N4C(=O)C(NC(=O)C(C)NC)C3)c2)CCC2CCC(C(=O)NC(c3ccccc3)c3ccccc3)N2C1=O (stereo unspecified) + Cc1c(S(C)(=O)=O)c(-c2cc(F)cc(N3CCN(c4ccc(NS(=O)(=O)c5ccc(NC(CCN6CCC(C(=O)OCCCP(=O)(O)O)CC6)CSc6ccccc6)c(S(=O)(=O)C(F)(F)F)c5)cc4)CC3)c2)c(-c2ccc(Cl)cc2)n1C(C)C,IC50,second compound 0.0316 µM,> 1 µM
same,IC50,second compound 0.1 µM,> 1 µM
same,IC50,second compound 0.316 µM,> 1 µM
same,IC50,second compound 1 µM,> 1 µM
same,IC50,second compound 3.16 µM,0.0238 µM
same,IC50,second compound 10 µM,< 0.00316 µM
same,"viability, T/C","second compound 0.0316 µM, first compound 0.00316 µM",84.3%
same,"viability, T/C","second compound 0.0316 µM, first compound 0.01 µM",97.2%
same,"viability, T/C",[1],75.4%
same,"viability, T/C",[2],84.7%
same,"viability, T/C",[3],89.2%
same,"viability, T/C",[4],75.2%
same,"viability, T/C","second compound 0.1 µM, first compound 0.00316 µM",86.1%
same,"viability, T/C","second compound 0.1 µM, first compound 0.01 µM",82.5%
same,"viability, T/C",[5],82.1%
same,"viability, T/C",[6],83%
same,"viability, T/C",[7],71.9%
same,"viability, T/C",[8],69.1%
same,"viability, T/C","second compound 0.316 µM, first compound 0.00316 µM",91.8%
same,"viability, T/C","second compound 0.316 µM, first compound 0.01 µM",89.7%
same,"viability, T/C",[9],70.2%
same,"viability, T/C",[10],70.1%
same,"viability, T/C",[11],70.9%
same,"viability, T/C",[12],56.1%
same,"viability, T/C","second compound 1 µM, first compound 0.00316 µM",74.3%
same,"viability, T/C","second compound 1 µM, first compound 0.01 µM",63.5%
same,"viability, T/C",[13],63.9%
same,"viability, T/C",[14],64.3%
same,"viability, T/C",[15],59.4%
same,"viability, T/C",[16],49.5%
same,"viability, T/C","second compound 3.16 µM, first compound 0.00316 µM",54.1%
same,"viability, T/C","second compound 3.16 µM, first compound 0.01 µM",54%
same,"viability, T/C",[17],51.8%
same,"viability, T/C",[18],42.4%
same,"viability, T/C",[19],35.6%
same,"viability, T/C",[20],32.3%
same,"viability, T/C","second compound 10 µM, first compound 0.00316 µM",44.1%
same,"viability, T/C","second compound 10 µM, first compound 0.01 µM",38.6%
same,"viability, T/C",[21],37.1%
same,"viability, T/C",[22],34.2%
same,"viability, T/C",[23],27%
same,"viability, T/C",[24],20.8%
CCN1C(C(=O)NC23CCC(C(=O)O)(CC2)CC3)C(c2cccc(Cl)c2F)C2(C(=O)Nc3cc(Cl)ccc32)C12CCCCC2 (stereo unspecified) + Cc1c(S(C)(=O)=O)c(-c2cc(F)cc(N3CCN(c4ccc(NS(=O)(=O)c5ccc(NC(CCN6CCC(C(=O)OCCCP(=O)(O)O)CC6)CSc6ccccc6)c(S(=O)(=O)C(F)(F)F)c5)cc4)CC3)c2)c(-c2ccc(Cl)cc2)n1C(C)C,IC50,second compound 0.0316 µM,> 3 µM
same,IC50,second compound 0.1 µM,> 3 µM
same,IC50,second compound 0.316 µM,> 3 µM
same,IC50,second compound 1 µM,2.38 µM
same,IC50,second compound 3.16 µM,0.459 µM
same,IC50,second compound 10 µM,0.133 µM
same,"viability, T/C","second compound 0.0316 µM, first compound 0.00949 µM",94.6%
same,"viability, T/C","second compound 0.0316 µM, first compound 0.03 µM",97.5%
same,"viability, T/C","second compound 0.0316 µM, first compound 0.0949 µM",94.3%
same,"viability, T/C","second compound 0.0316 µM, first compound 0.3 µM",90.8%
same,"viability, T/C","second compound 0.0316 µM, first compound 0.949 µM",87.5%
same,"viability, T/C","second compound 0.0316 µM, first compound 3 µM",80.7%
same,"viability, T/C","second compound 0.1 µM, first compound 0.00949 µM",89.5%
same,"viability, T/C","second compound 0.1 µM, first compound 0.03 µM",94.8%
same,"viability, T/C","second compound 0.1 µM, first compound 0.0949 µM",95.9%
same,"viability, T/C","second compound 0.1 µM, first compound 0.3 µM",112%
same,"viability, T/C","second compound 0.1 µM, first compound 0.949 µM",87.7%
same,"viability, T/C","second compound 0.1 µM, first compound 3 µM",73.4%
same,"viability, T/C","second compound 0.316 µM, first compound 0.00949 µM",98.7%
same,"viability, T/C","second compound 0.316 µM, first compound 0.03 µM",92.4%
same,"viability, T/C","second compound 0.316 µM, first compound 0.0949 µM",84.7%
same,"viability, T/C","second compound 0.316 µM, first compound 0.3 µM",97.1%
same,"viability, T/C","second compound 0.316 µM, first compound 0.949 µM",83%
same,"viability, T/C","second compound 0.316 µM, first compound 3 µM",54.1%
same,"viability, T/C","second compound 1 µM, first compound 0.00949 µM",88.6%
same,"viability, T/C","second compound 1 µM, first compound 0.03 µM",76%
same,"viability, T/C","second compound 1 µM, first compound 0.0949 µM",67.2%
same,"viability, T/C","second compound 1 µM, first compound 0.3 µM",83.1%
same,"viability, T/C","second compound 1 µM, first compound 0.949 µM",62.7%
same,"viability, T/C","second compound 1 µM, first compound 3 µM",46.1%
same,"viability, T/C","second compound 3.16 µM, first compound 0.00949 µM",64.5%
same,"viability, T/C","second compound 3.16 µM, first compound 0.03 µM",71%
same,"viability, T/C","second compound 3.16 µM, first compound 0.0949 µM",54.8%
same,"viability, T/C","second compound 3.16 µM, first compound 0.3 µM",57.1%
same,"viability, T/C","second compound 3.16 µM, first compound 0.949 µM",42.2%
same,"viability, T/C","second compound 3.16 µM, first compound 3 µM",24.2%
same,"viability, T/C","second compound 10 µM, first compound 0.00949 µM",50.8%
same,"viability, T/C","second compound 10 µM, first compound 0.03 µM",53%
same,"viability, T/C","second compound 10 µM, first compound 0.0949 µM",51.7%
same,"viability, T/C","second compound 10 µM, first compound 0.3 µM",46.8%
same,"viability, T/C","second compound 10 µM, first compound 0.949 µM",33.8%
same,"viability, T/C","second compound 10 µM, first compound 3 µM",18.8%
C=C(F)C(=O)N1CCN(c2nc(OCC3CCCN3C)nc3c2CCN(c2cccc4cccc(Cl)c24)C3)CC1CC#N (stereo unspecified) + Cc1c(S(C)(=O)=O)c(-c2cc(F)cc(N3CCN(c4ccc(NS(=O)(=O)c5ccc(NC(CCN6CCC(C(=O)OCCCP(=O)(O)O)CC6)CSc6ccccc6)c(S(=O)(=O)C(F)(F)F)c5)cc4)CC3)c2)c(-c2ccc(Cl)cc2)n1C(C)C,IC50,second compound 0.0316 µM,4.96 µM
same,IC50,second compound 0.1 µM,4.52 µM
same,IC50,second compound 0.316 µM,4.25 µM
same,IC50,second compound 1 µM,2.76 µM
same,IC50,second compound 3.16 µM,0.66 µM
same,IC50,second compound 10 µM,0.326 µM
same,"viability, T/C",[1],110%
same,"viability, T/C",[2],98.3%
same,"viability, T/C",[3],87.6%
same,"viability, T/C",[4],101%
same,"viability, T/C","second compound 0.0316 µM, first compound 3.16 µM",81.9%
same,"viability, T/C","second compound 0.0316 µM, first compound 10 µM",0.22%
same,"viability, T/C",[5],98.4%
same,"viability, T/C",[6],97.9%
same,"viability, T/C",[7],93.9%
same,"viability, T/C",[8],91.1%
same,"viability, T/C","second compound 0.1 µM, first compound 3.16 µM",72.8%
same,"viability, T/C","second compound 0.1 µM, first compound 10 µM",0.18%
same,"viability, T/C",[9],104%
same,"viability, T/C",[10],98%
same,"viability, T/C",[11],92.4%
same,"viability, T/C",[12],89.6%
same,"viability, T/C","second compound 0.316 µM, first compound 3.16 µM",68.2%
same,"viability, T/C","second compound 0.316 µM, first compound 10 µM",0.17%
same,"viability, T/C",[13],84.3%
same,"viability, T/C",[14],87%
same,"viability, T/C",[15],76.7%
same,"viability, T/C",[16],80%
same,"viability, T/C","second compound 1 µM, first compound 3.16 µM",46%
same,"viability, T/C","second compound 1 µM, first compound 10 µM",1.18%
same,"viability, T/C",[17],79.5%
same,"viability, T/C",[18],67.4%
same,"viability, T/C",[19],52.4%
same,"viability, T/C",[20],50.5%
same,"viability, T/C","second compound 3.16 µM, first compound 3.16 µM",26.9%
same,"viability, T/C","second compound 3.16 µM, first compound 10 µM",0.2%
same,"viability, T/C",[21],58.4%
same,"viability, T/C",[22],50.1%
same,"viability, T/C",[23],48.3%
same,"viability, T/C",[24],44.2%
same,"viability, T/C","second compound 10 µM, first compound 3.16 µM",22%
same,"viability, T/C","second compound 10 µM, first compound 10 µM",1.02%
